Read-outs that look alike come from different tables or passages of the source. Blank lines part the entries; values can stand above or below the compound they belong to.
Key:
Format in all cases: biochemical
caspase-3 = biological target: T1, caspase-3 (Homo sapiens, UniProt P42574); assay: Enzyme inhibition assay, caspase 3 (fluorogenic Ac-DEVD-AMC)
T1 construct: purchased Sigma-Aldrich (St. Louis, Mo.)
T1 sequence (P42574 29-175 limits assumed): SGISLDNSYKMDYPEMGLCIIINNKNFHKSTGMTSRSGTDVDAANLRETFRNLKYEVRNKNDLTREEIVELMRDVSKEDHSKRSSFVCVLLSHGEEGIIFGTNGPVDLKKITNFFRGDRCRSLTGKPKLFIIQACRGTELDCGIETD
T1 sequence (P42574 176-277 limits assumed): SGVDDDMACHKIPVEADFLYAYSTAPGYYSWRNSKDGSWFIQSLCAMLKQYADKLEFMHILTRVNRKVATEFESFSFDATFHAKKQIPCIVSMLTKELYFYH

caspase 7 = biological target: T2, caspase 7 (Homo sapiens, UniProt P55210); assay: Enzyme inhibition assay, caspase 7 (fluorogenic Ac-DEVD-AMC)
T2 construct: purchased Sigma-Aldrich (St. Louis, Mo.)
T2 sequence (P55210 24-198 limits assumed): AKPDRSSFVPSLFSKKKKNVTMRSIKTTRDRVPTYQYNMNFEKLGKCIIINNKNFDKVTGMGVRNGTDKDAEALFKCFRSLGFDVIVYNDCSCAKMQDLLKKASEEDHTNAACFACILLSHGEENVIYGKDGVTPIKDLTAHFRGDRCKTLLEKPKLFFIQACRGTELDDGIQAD
T2 sequence (P55210 207-303 limits assumed): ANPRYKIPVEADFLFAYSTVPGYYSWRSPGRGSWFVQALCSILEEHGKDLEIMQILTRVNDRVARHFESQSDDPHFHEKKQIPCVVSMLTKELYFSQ

caspase 6 = biological target: T3, caspase 6 (Homo sapiens, UniProt P55212); assay: Enzyme inhibition assay, caspase 6 (fluorogenic Ac-VEID-AMC)
T3 construct: purchased Sigma-Aldrich (St. Louis, Mo.)
T3 sequence (P55212 24-179 limits assumed): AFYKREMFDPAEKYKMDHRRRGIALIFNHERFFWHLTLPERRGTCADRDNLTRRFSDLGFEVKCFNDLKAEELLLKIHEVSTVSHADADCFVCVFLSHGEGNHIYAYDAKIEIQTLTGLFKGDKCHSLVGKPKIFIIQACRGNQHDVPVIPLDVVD
T3 sequence (P55212 194-293 limits assumed): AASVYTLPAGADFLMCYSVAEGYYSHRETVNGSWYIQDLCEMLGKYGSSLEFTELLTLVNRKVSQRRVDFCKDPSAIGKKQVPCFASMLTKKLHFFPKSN

caspase 1 = biological target: T4, caspase 1 (Homo sapiens, UniProt P29466); assay: Enzyme inhibition assay, caspase 1 (fluorogenic Ac-YVAD-AMC)
T4 construct: purchased BIOMOL Research Laboratories (Plymouth Meeting, Pa.)
T4 sequence (P29466 120-297 limits assumed): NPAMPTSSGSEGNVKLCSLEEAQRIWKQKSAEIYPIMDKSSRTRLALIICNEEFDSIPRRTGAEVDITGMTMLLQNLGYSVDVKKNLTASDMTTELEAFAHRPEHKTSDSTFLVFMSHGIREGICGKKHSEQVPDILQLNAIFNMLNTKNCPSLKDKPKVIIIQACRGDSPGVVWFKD
T4 sequence (P29466 317-404 limits assumed): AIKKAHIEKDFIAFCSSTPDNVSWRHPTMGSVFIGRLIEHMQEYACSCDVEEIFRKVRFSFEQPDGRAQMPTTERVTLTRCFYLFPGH

caspase 8 = biological target: T5, caspase 8 (Homo sapiens, UniProt Q14790); assay: Enzyme inhibition assay, caspase 8 (fluorogenic Ac-IETD-AMC)
T5 construct: purchased Sigma-Aldrich (St. Louis, Mo.)
T5 sequence (Q14790 217-374 limits assumed): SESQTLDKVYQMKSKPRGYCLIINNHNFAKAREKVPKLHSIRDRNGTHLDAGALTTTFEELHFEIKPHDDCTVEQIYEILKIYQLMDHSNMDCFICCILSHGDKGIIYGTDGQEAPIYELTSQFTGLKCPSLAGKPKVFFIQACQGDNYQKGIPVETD
T5 sequence (Q14790 385-479 limits assumed): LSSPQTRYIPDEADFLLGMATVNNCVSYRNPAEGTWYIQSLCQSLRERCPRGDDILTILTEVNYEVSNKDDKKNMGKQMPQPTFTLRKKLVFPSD

[1] = Table 4, read-out: IC50 (nM) caspase-3
[2] = Table 4, read-out: IC50 (nM) caspase-7
[3] = Table 1, read-out: IC50 (nM) Caspase 1
[4] = Table 1, read-out: IC50 (nM) Caspase 8
[5] = Table 2, read-out: IC50 (nM) Caspase 1
[6] = Table 2, read-out: IC50 (nM) Caspase 8
[7] = Table 7, read-out: IC50 (nM) Casp-8
[8] = Table 2, read-out: IC50 (nM) Caspase 3
[9] = Table 2, read-out: IC50 (nM) Caspase 6
[10] = Table 2, read-out: IC50 (nM) Caspase 7

IC50 (caspase-3; [1]): 10.3 ± 1.5 nM | IC50 (caspase 7; [2]): 14.5 ± 0.9 nM
SMILES: O=C1C(=O)N(Cc2ccc(F)nc2)c2ccc(S(=O)(=O)N3CCC[C@H]3COc3ccccc3)cc21 [Compound 11g, (S)-1-(6-Fluoropyridin-3-yl-methyl)-5-(2-phenoxymethylpyrrolidine-1-sulfonyl)-1H-indole-2,3-dione]

IC50 (caspase-3; [1]): 240 ± 10 nM | IC50 (caspase 7; [2]): 540 ± 56.6 nM
SMILES: O=C1Nc2ccc(S(=O)(=O)N3CCC[C@H]3COc3ccccc3)cc2C1=O [Compound 10, (S)-5-(2-Phenoxymethyl-pyrrolidine-1-sulfonyl)-1H-indole-2,3-dione]

IC50 (caspase-3; Table 1, read-out: IC50 (nM) Caspase 3): 3.1 ± 0.4 nM | IC50 (caspase 6; Table 1, read-out: IC50 (nM) Caspase 6): 6900 nM | IC50 (caspase 1; [3]): > 20000 nM | IC50 (caspase 7; Table 1, read-out: IC50 (nM) Caspase 7): 11.3 ± 0.6 nM | IC50 (caspase 8; [4]): > 50000 nM
SMILES: O=C1C(=O)N(Cc2ccc(OCCF)cc2)c2ccc(S(=O)(=O)N3CCC[C@H]3COc3cccnc3)cc21 [WC-II-100]

IC50 (caspase 1; [3]): 8.1 ± 2.1 nM | IC50 (caspase 1; [5]): 8.1 ± 2.1 nM
SMILES: CC(=O)N[C@@H](Cc1ccc(O)cc1)C(=O)N[C@H](C(=O)N[C@@H](C)C(=O)N[C@H](C=O)CC(=O)O)C(C)C [Ac-YVAD-CHO, reference compound]

SMILES: N#CC(C#N)=C1C(=O)N(Cc2ccccc2)c2ccc(S(=O)(=O)N3CCCC3COc3ccccc3)cc21 (stereo not drawn) [Compound 27b, 2-[1-Benzyl-2-oxo-5-(2-phenoxymethyl-pyrrolidine-1-sulfonyl)-1,2-dihydroindol-3-yl-idene]-malononitrile]
IC50 (caspase-3; IC50 (nM) Casp-3, Table 7): 27.8 ± 2.5 nM | IC50 (caspase-3; IC50 (nM) Caspase 3, Table 2): 27.8 ± 2.5 nM | IC50 (caspase-3; IC50 for caspase-3): 27.8 nM | IC50 (caspase 6): 918 ± 151 nM | IC50 (caspase 1): 6220 nM | IC50 (caspase 7; IC50 (nM) Casp-7, Table 7): 51.7 ± 6.2 nM | IC50 (caspase 7; IC50 (nM) Caspase 7, Table 2): 51.7 ± 6.2 nM | IC50 (caspase 7; IC50 for caspase-7): 51.7 nM | IC50 (caspase 8; [6]): > 50000 nM | IC50 (caspase 8; [7]): > 50000 nM

SMILES: O=C1Nc2ccc(S(=O)(=O)N3CCCC3COc3cccnc3)cc2C1=O (stereo not drawn) [Compound 20, 5-(2-(Pyridin-3-yl-oxymethyl)-pyrrolidine-1-sulfonyl)-1H-indole-2,3-dione]
IC50 (caspase-3; Table 6, read-out: IC50 (nM) caspase-3): 58.3 ± 7.6 nM | IC50 (caspase 6; Table 6, read-out: IC50 (nM) caspase-6): > 5000 nM | IC50 (caspase 1; Table 6, read-out: IC50 (nM) caspase-1): > 5000 nM | IC50 (caspase 7; Table 6, read-out: IC50 (nM) caspase-7): 215 ± 49.5 nM | IC50 (caspase 8): > 50000 nM

IC50 (caspase-3; [8]): 283 ± 15 nM | IC50 (caspase 6; [9]): 540 ± 44 nM | IC50 (caspase 1; [5]): 2380 nM | IC50 (caspase 7; [10]): 2380 nM | IC50 (caspase 8; [6]): > 50000 nM
SMILES: N#CC(C#N)=C1C(=O)Nc2ccc(S(=O)(=O)N3CC[C@H]3COc3ccccc3)cc21 [WC-II-54]

SMILES: O=C1C(=O)N(Cc2ccc(Br)cc2)c2ccc(S(=O)(=O)N3CCCC3COc3ccccc3)cc21 (stereo not drawn) [Compound 25d, 1-(4-Bromo-benzyl)-5-(2-Phenoxymethyl-pyrrolidine-1-sulfonyl)-1H-indole-2,3-dione]
IC50 (caspase-3; IC50 (nM) Casp-3, Table 7): 9.85 ± 0.9 nM | IC50 (caspase-3; IC50 (nM) Caspase 3, Table 1): 9.9 ± 0.9 nM | IC50 (caspase 6): 8900 nM | IC50 (caspase 1; [3]): > 15000 nM | IC50 (caspase 1; Table 7, read-out: IC50 (nM) Casp-1): > 15000 nM | IC50 (caspase 7; IC50 (nM) Casp-7, Table 7): 34.8 ± 1.4 nM | IC50 (caspase 7; IC50 (nM) Caspase 7, Table 1): 34.8 ± 1.4 nM | IC50 (caspase 8; [4]): > 50000 nM | IC50 (caspase 8; [7]): > 50000 nM

SMILES: N#CC(C#N)=C1C(=O)N(Cc2ccc(Br)cc2)c2ccc(S(=O)(=O)N3CCCC3COc3cccnc3)cc21 (stereo not drawn) [Compound 30c, 2-{1-(4-Bromo-benzyl)-2-oxo-5-[2-(pyndine-3-yloxymethyl)-pyrrolidine-1-sulfonyl]-1,2-dihydro-indol-3-yl-idene}-malononitrile]
IC50 (caspase-3; IC50 (nM) Caspase 3, Table 2): 5.13 ± 0.7 nM | IC50 (caspase-3; IC50 for caspase-3): 5.1 nM | IC50 (caspase 6): 515 ± 77 nM | IC50 (caspase 6; read-out: IC50 for caspase-6): 515 to 770 nM | IC50 (caspase 1): 3400 nM | IC50 (caspase 1; IC50 (nM) Casp-1, Table 7): 3400 nM | IC50 (caspase 1; read-out: IC50 for caspase-1): 2700 to 3200 nM | IC50 (caspase 7; IC50 (nM) Casp-7, Table 7): 26.3 ± 0.8 nM | IC50 (caspase 7; IC50 (nM) Caspase 7, Table 2): 26.3 ± 0.8 nM | IC50 (caspase 7; IC50 for caspase-7): 26.3 nM | IC50 (caspase 8; [6]): > 50000 nM | IC50 (caspase 8; [7]): > 50000 nM | IC50 (caspase 8; read-out: IC50 for caspase-8): > 50000 nM

IC50 (caspase-3; [8]): 7.1 ± 0.6 nM | IC50 (caspase 6; [9]): 580 ± 55 nM | IC50 (caspase 1; [5]): 2900 nM | IC50 (caspase 7; [10]): 22.7 ± 3.1 nM | IC50 (caspase 8; [6]): > 50000 nM
SMILES: N#CC(C#N)=C1C(=O)N(Cc2ccc(OCCF)cc2)c2ccc(S(=O)(=O)N3CC[C@H]3COc3cccnc3)cc21 [WC-II-104]

IC50 (caspase-3; [8]): 7.5 ± 0.2 nM | IC50 (caspase 6; [9]): 770 ± 119 nM | IC50 (caspase 1; [5]): 3500 nM | IC50 (caspase 7; [10]): 26 ± 5.2 nM | IC50 (caspase 8; [6]): > 50000 nM
SMILES: N#CC(C#N)=C1C(=O)N(Cc2ccc(OCCF)cc2)c2ccc(S(=O)(=O)N3CCC[C@H]3COc3cccnc3)cc21 [WC-II-103]
